The IC50 is the concentration that gives 50% inhibition.

These results are taken from patent publication US20140349989A1, “COMPOUNDS AND THERAPEUTIC USES THEREOF” (Alzheimer's Institute of America, priority 2011, published 2014).

One data set is described as follows: Cytotoxicity Assay (HCT116, CellTiter-Glo). Type of data set: cell-based. Conditions: human, HCT116 cell cytotoxicity IC50. As to the method:
HCT116 cells were seeded in 96 well plates (Greiner Bio-One, Monroe, N.C.) and allowed to settle overnight. Test compound dissolved in dimethyl sulfoxide (DMSO) was added and drug incubation proceeded for 72 hours. When applicable, a 1000× solution of nicotinic acid (NA; Sigma-Aldrich, St. Louis, Mo.) dissolved in water was generated, and 1×NA (10 μM final concentration) was added at the same time as the test compound. After 72 hour, 50 μL of CellTiter-Glo Luminescent Cell Viability Assay reagent (Promega Corporation, Madison, Wis.) was added to cells in 200 μL of cellular media. After a proscribed incubation period, luminescence was measured using a TopCount NXT plate reader (PerkinElmer, Waltham, Mass.).
In general terms: In ATP-based viability assays light output follows the ATP content of the culture.
In turn, `O=C(NCCCCCCc1c[nH]c2ccccc12)NCc1cccnc1` [Compound 89, 1-[6-(1H-Indol-3-yl)hexyl]-3-(pyridin-3-ylmethyl)urea] had an IC50 at 72 h of at least 100 nM.

Compound `CC(C)(C)OC(=O)N1CCC(n2cc(C#CCCCNC(=O)NCc3cccnc3)c3ccccc32)CC1` [Compound 41, tert-Butyl 4-[3-(5-{[(pyridin-3-ylmethyl)carbamoyl]ami-no}pent-1-yn-1-yl)-1H-indol-1-yl]piperidine-1-carboxylate] gave an IC50 at 72 h of at least 100 nM.

With `O=C(NCc1cncs1)Nc1ccc(-n2cc(CCN3CCOCC3)c3ccccc32)cc1` [Compound 63, 1-(4-{3-[2-(Morpholin-4-yl)ethyl]-1H-indol-1-yl}phenyl)-3-(1,3-thiazol-5-ylmethyl) urea], the IC50 at 72 h was at least 100 nM.

Consider `O=C(NCc1cccnc1)Nc1ccc(-n2nc(N3CCC(CN4CCOCC4)CC3)c3ccccc32)cc1` [Compound 62, 1-(4-{3-[4-(Morpholin-4-ylmethyl)piperidin-1-yl]-1H-indazol-1-yl}phenyl)-3-(pyridin-3-ylmethyl)urea], for which the IC50 at 72 h was below 100 nM.

`O=C(NCc1cccnc1)Nc1ccc(N2CC3(CCN(C4CCOCC4)CC3)c3ccccc32)nc1` [Compound 130] came in with an IC50 at 72 h below 100 nM.

Turning to `O=C(NCc1cccnc1)Nc1ccc(-n2c(Cl)c(C(=O)N3CCC(n4ccnc4)CC3)c3ccccc32)cc1` [Compound 127, 1-[4-(2-Chloro-3-{[4-(1H-imidazol-1-yl)piperidin-1-yl]carbonyl}-1H-indol-1-yl)phenyl]-3-(pyridin-3-ylmethyl)urea], the IC50 at 72 h was below 100 nM.

`O=C(NCc1ccc(Cl)nc1)Nc1ccc(-n2cc(CCN3CCOCC3)c3ccccc32)cc1` [Compound 128, 1-[(6-Chloro-pyridin-3-yl)methyl]-3-(4-{3-[2-(morpholin-4-yl)ethyl]-1H-indol-1-yl}phenyl)urea] returned an IC50 at 72 h below 100 nM.

The data set is the same for the next values; noted with them: human, HCT116 cells, 72 hours drug incubation, CellTiter-Glo luminescence; read-out: HCT116 cell cytotoxicity IC50.
On to `O=C(NCc1cncc(F)c1)Nc1ccc(-n2cc(CCN3CCOCC3)c3ccccc32)cc1` [Compound 103, 1-[(5-Fluoro-pyridin-3-yl)methyl]-3-(4-{3-[2-(morpholin-4-yl)ethyl]-1H-indol-1-yl}phenyl)urea], for which the IC50 at 72 h is below 100 nM.

As for `O=C(NCc1cccnc1)Nc1ccc(-c2nn(C3CNC3)c3ccccc23)cc1` [Compound 91, 1-{4-[1-(Azetidin-3-yl)-1H-indazol-3-yl]phenyl}-3-(pyridin-3-ylmethyl) urea], the half-maximal inhibitory concentration (IC50) at 72 h is below 100 nM.

For `CN(c1nn(-c2ccc(NC(=O)NCc3cccnc3)cc2)c2ccccc12)C1CCNC1` (centres unmarked) [Compound 76, 1-(4-{3-[Methyl (pyrrolidin-3-yl)amino]-1H-indazol-1-yl}phenyl)-3-(pyridin-3-ylmethyl)urea], the IC50 at 72 h is below 100 nM.

In the case of `O=C(NCc1cccnc1)Nc1ccc(-n2cc(C3CCN(C4CCCC4)CC3)c3ccccc32)cc1` [Compound 110, 1-{4-[3-(1-Cyclopentyl-piperidin-4-yl)-1H-indol-1-yl]phenyl}-3-(pyridin-3-ylmethyl)urea], the half-maximal inhibitory concentration (IC50) at 72 h was below 100 nM.

As for `O=C(/C=C/c1ccc(-n2nc(C(=O)N3CCN(C4CCC4)CC3)c3ccccc32)cc1)NCc1cccnc1` [Compound 167, (2E)-3-(4-{3-[(4-Cyclobutylpiperazin-1-yl)carbonyl]-1H-indazol-1-yl}phenyl)-N-(pyridin-3-ylmethyl)prop-2-enamide], the IC50 at 72 h is below 100 nM.

With `CCN1CCN(C(=O)c2cn(CCCCCNC(=O)NCc3cncs3)c3ccccc23)CC1` [Compound 113, 1-(5-{3-[(4-Ethylpiperazin-1-yl)carbonyl]-1H-indol-1-yl}pentyl)-3-(1,3-thiazol-5-ylmethyl) urea], the IC50 at 72 h is below 100 nM.

As to `O=C(NCc1cccnc1)Nc1ccc(-n2cc(-c3nccn3CCC3CCNCC3)c3ccccc32)cc1` [Compound 60, 1-[4-(3-{1-[2-(Piperidin-4-yl)ethyl]-1H-imidazol-2-yl}-1H-indol-1-yl)phenyl]-3-(pyridin-3-ylmethyl)urea], the IC50 at 72 h is at least 100 nM.

Turning to `O=C(NCc1cccnc1)Nc1ccc2c(c1)c(C(=O)NCCCN1CCCCC1)cn2Cc1ccccc1` [Compound 96, 1-Benzyl-N-[3-(piperidin-1-yl)propyl]-5-{[(pyridin-3-yl-methyl)carbamoyl]amino}-1H-indole-3-carboxamide], the IC50 at 72 h is at least 100 nM.

For the compound `O=C(NCc1cccnc1)Nc1ccc(N2CC3(CCN(C(=O)OCc4ccccc4)CC3)c3ccccc32)cc1` [Compound 66, Benzyl 1-(4-{[(pyridin-3-ylmethyl)carbamoyl]ami-no}phenyl)-1,2-dihydro-1′H-spiro[indole-3,4′-piperidine]-1′-carboxyylate], the IC50 at 72 h was below 100 nM.

For `O=C(NCc1cccnc1)Nc1ccc(-n2nc(N3CCN(C4COC4)CC3)c3ccccc32)cc1` [Compound 114, 1-(4-{3-[4-(Oxetan-3-yl)piperazin-1-yl]-1H-indazol-1-yl}phenyl)-3-(pyridin-3-ylmethyl)urea], the IC50 at 72 h is below 100 nM.

Turning to `Cc1c(C(=O)N2CCN(C3CCCCC3)CC2)c2ccccc2n1-c1ccc(NC(=O)NCc2cccnc2)cc1` [Compound 104, 1-(4-{3-[(4-Cyclohexyl-piperazin-1-yl)carbonyl]-2-methyl-1H-indol-1-yl}phenyl)-3-(pyridin-3-ylmethyl)urea], the IC50 at 72 h was below 100 nM.

Regarding `CC(C)(C)OC(=O)N1CCC(CCn2ccnc2-c2cn(-c3ccc(NC(=O)NCc4cccnc4)cc3)c3ccccc23)CC1` [Compound 87, tert-Butyl 4-(2-{2-[1-(4-{[(pyridin-3-yl-methyl)carbamoyl]amino}phenyl)-1H-indol-3-yl]-1H-imidazol-1-yl}ethyl)piperidine-1-carboxylate], the IC50 at 72 h is below 100 nM.

`O=C(NCc1cccnc1)Nc1ccc(-n2cc(-c3ccccc3OCCCN3CCOCC3)cn2)cc1` [Compound 30, 1-[4-(4-{2-[3-(Morpholin-4-yl)propoxy]phenyl}-1H-pyrazol-1-yl)phenyl]-3-(pyridin-3-ylmethyl)urea]: the IC50 at 72 h is below 100 nM.

Take `O=C(NCCCCCn1cc(C(=O)N2CCN(C3CCCCC3)CC2)c2ccccc21)NCc1cccnc1` [Compound 116, 1-(5-{3-[(4-Cyclohexyl-piperazin-1-yl)carbonyl]-1H-indol-1-yl}pentyl)-3-(pyridin-3-ylmethyl)urea]: the 50% inhibitory concentration (IC50) at 72 h is below 100 nM.

Consider `O=C(/C=C/c1ccc(-n2nc(C(=O)N3CCC(N4CCOCC4)C3)c3ccccc32)cc1)NCc1cccnc1` (centres unmarked) [Compound 170, (2E)-3-[4-(3-{[3-(Morpholin-4-yl)pyrrolidin-1-yl]carbonyl}-1H-indazol-1-yl)phenyl]-N-(pyridin-3-ylmethyl)prop-2-enamide], for which the IC50 at 72 h was below 100 nM.

Turning to `O=C(/C=C/c1ccc(-n2cc(CCN3CCCC3)c3ccccc32)cc1)NCc1cccnc1` [Compound 174, (2E)-N-(Pyridin-3-ylmethyl)-3-(4-{3-[2-(pyrrolidin-1-yl)ethyl]-1H-indol-1-yl}phenyl)prop-2-enamide], the IC50 at 72 h is below 100 nM.

In the case of `O=C(NCc1cccnc1)Nc1ccc(-n2nc(N3CCN(C4CCCCC4)CC3)c3ccccc32)cc1` [Compound 86, 1-{4-[3-(4-Cyclo-hexylpiperazin-1-yl)-1H-indazol-1-yl]phenyl}-3-(pyridin-3-ylmethyl)urea], the IC50 at 72 h was below 100 nM.

For the compound `O=C(NCc1cccnc1)Nc1ccc(-n2cc(-c3nccn3CCN3CCCC3)c3ccccc32)cc1` [Compound 72, 1-(Pyridin-3-ylmethyl)-3-[4-(3-{1-[2-(pyrrolidin-1-yl)ethyl]-1H-imidazol-2-yl}-1H-indol-1-yl)phenyl] urea], the IC50 at 72 h is below 100 nM.

`O=C(NCc1cccnc1)N[C@H]1CC[C@H](n2cc(C(=O)N3CCN(C4CCCCC4)CC3)c3ccccc32)CC1` [Compound 37, 1-(trans-4-{3-[(4-Cyclohexyl-piperazin-1-yl)carbonyl]-1H-indol-1-yl}cyclohexyl)-3-(pyridin-3-ylmethyl)urea]: the IC50 at 72 h is below 100 nM.

`O=C(/C=C/c1ccc(-n2cc(CCN3CCOCC3)c3ccccc32)nc1)NCc1cccnc1` [Compound 179, (2E)-3-(6-{3-[2-(Morpholin-4-yl)ethyl]-1H-indol-1-yl}pyridin-3-yl)-N-(pyridin-3-ylmethyl)prop-2-enamide]: the IC50 at 72 h was below 100 nM.

As to `C[C@H](O)C(=O)N1CCC2(CC1)CN(c1ccc(NC(=O)NCc3cccnc3)cc1)c1ccccc12` [Compound 71, 1-(4-{1′-[(2S)-2-Hydroxypropanoyl]spiro[indole-3,4′-piperidin]-1(2H)-yl}phenyl)-3-(pyridin-3-ylmethyl) urea], the IC50 at 72 h is below 100 nM.

Take `O=C(NCc1cccnc1)Nc1ccc(N2CC3(CCN(C4CCCC4)CC3)c3ccccc32)cc1` [Compound 117, 1-[4-(1′-Cyclo-pentylspiro[indole-3,4′-piperidin]-1(2H)-yl)phenyl]-3-(pyridin-3-ylmethyl)urea]: the concentration for half-maximal inhibition (IC50) at 72 h is below 100 nM.

On to `CC(C)(CCCCNC(=O)NCc1cccnc1)n1cc(C(=O)N2CCN(C3CCCCC3)CC2)c2ccccc21` [Compound 67, 1-(5-{3-[(4-Cyclohexyl-piperazin-1-yl)carbonyl]-1H-indol-1-yl}-5-methylhexyl)-3-(pyridin-3-ylmethyl)urea], for which the half-maximal inhibitory concentration (IC50) at 72 h was below 100 nM.

As to `CCOC(=O)c1cn(CCCCCNC(=O)NCc2cccnc2)c2ccccc12` [Compound 65, Ethyl 1-(5-{[(pyridin-3-ylmethyl)carbamoyl]amino}pentyl)-1H-indole-3-carboxylate], the IC50 at 72 h was below 100 nM.

With `O=C(NCc1cccnc1)Nc1ccc(-n2cc(C3CCN(CC(F)F)CC3)c3ccccc32)cc1` [Compound 40, 1-(4-{3-[1-(2,2-Difluoroethyl)piperidin-4-yl]-1H-indol-1-yl}phenyl)-3-(pyridin-3-ylmethyl)urea], the IC50 at 72 h is below 100 nM.
